The test system of the data set is CCRIS mutagenicity, Ames/micronucleus/aberration tests. The data set is described as follows: CCRIS mutagenicity studies.

The source made the active and inactive calls. No rule for the calls is given here.

Take `CC(=O)OC(C)CN(CC(C)OC(C)=O)N=O` (configuration not stated): the mutagenic call is, setting by setting: (Test System: AMES SALMONELLA TYPHIMURIUM, Strain/Indicator: TA100, Metabolic Activation: HAMSTER, LIVER, S-9, 3-METHYLCHOLANTHRENE, Method: PREINCUBATION) “active; positive”; (Test System: AMES SALMONELLA TYPHIMURIUM, Strain/Indicator: TA100, Metabolic Activation: HAMSTER, LIVER, S-9, PHENOBARBITAL, Method: PREINCUBATION) “active; positive”; (Test System: AMES SALMONELLA TYPHIMURIUM, Strain/Indicator: TA100, Metabolic Activation: HAMSTER, LIVER, S-9, Method: PREINCUBATION) “active; positive”; (Test System: AMES SALMONELLA TYPHIMURIUM, Strain/Indicator: TA100, Metabolic Activation: HUMAN, LIVER, S-9, Method: PREINCUBATION) “inactive; negative”; (Test System: AMES SALMONELLA TYPHIMURIUM, Strain/Indicator: TA100, Metabolic Activation: MONKEY, LIVER, S-9, Method: PREINCUBATION) “active; positive”; (Test System: AMES SALMONELLA TYPHIMURIUM, Strain/Indicator: TA100, Metabolic Activation: MOUSE, LIVER, S-9, 3-METHYLCHOLANTHRENE, Method: PREINCUBATION) “active; positive”. Further, the mutagenic call is, setting by setting: (Test System: AMES SALMONELLA TYPHIMURIUM, Strain/Indicator: TA100, Metabolic Activation: MOUSE, LIVER, S-9, PHENOBARBITAL, Method: PREINCUBATION) “active; positive”; (Test System: AMES SALMONELLA TYPHIMURIUM, Strain/Indicator: TA100, Metabolic Activation: MOUSE, LIVER, S-9, Method: PREINCUBATION) “active; positive”; (Test System: AMES SALMONELLA TYPHIMURIUM, Strain/Indicator: TA100, Metabolic Activation: NONE, Method: PREINCUBATION) “inactive; negative”; (Test System: AMES SALMONELLA TYPHIMURIUM, Strain/Indicator: TA100, Metabolic Activation: RABBIT, LIVER, S-9, Method: PREINCUBATION) “active; positive”; (Test System: AMES SALMONELLA TYPHIMURIUM, Strain/Indicator: TA100, Metabolic Activation: RAT, LIVER, CYTOSOL, PCB, Method: PREINCUBATION) “inactive; negative”; (Test System: AMES SALMONELLA TYPHIMURIUM, Strain/Indicator: TA100, Metabolic Activation: RAT, LIVER, MICROSOMES AND CYTOSOL, PCB, Method: PREINCUBATION) “active; positive”. Moreover, the mutagenic call reads like this: (Test System: AMES SALMONELLA TYPHIMURIUM, Strain/Indicator: TA100, Metabolic Activation: RAT, LIVER, MICROSOMES AND G6PDH, PCB, Method: PREINCUBATION) “active; positive”; (Test System: AMES SALMONELLA TYPHIMURIUM, Strain/Indicator: TA100, Metabolic Activation: RAT, LIVER, MICROSOMES, PCB, Method: PREINCUBATION) “active; positive”; (Test System: AMES SALMONELLA TYPHIMURIUM, Strain/Indicator: TA100, Metabolic Activation: RAT, LIVER, S-9 (HEATED), PCB, Method: PREINCUBATION) “inactive; negative”; (Test System: AMES SALMONELLA TYPHIMURIUM, Strain/Indicator: TA100, Metabolic Activation: RAT, LIVER, S-9, 3-METHYLCHOLANTHRENE, Method: PREINCUBATION) “active; positive”; (Test System: AMES SALMONELLA TYPHIMURIUM, Strain/Indicator: TA100, Metabolic Activation: RAT, LIVER, S-9, PCB, Method: PREINCUBATION) “active; positive”; (Test System: AMES SALMONELLA TYPHIMURIUM, Strain/Indicator: TA100, Metabolic Activation: RAT, LIVER, S-9, PHENOBARBITAL, Method: PREINCUBATION) “active; positive”. In addition, the mutagenic call is, setting by setting: (Test System: AMES SALMONELLA TYPHIMURIUM, Strain/Indicator: TA100, Metabolic Activation: RAT, LIVER, S-9, Method: PREINCUBATION) “active; positive”; (Test System: AMES SALMONELLA TYPHIMURIUM, Strain/Indicator: TA100, Metabolic Activation: RAT, LIVER, S-9 WITHOUT NADP+, PCB, Method: PREINCUBATION) “inactive; negative”; (Test System: AMES SALMONELLA TYPHIMURIUM, Strain/Indicator: TA100, Method: PREINCUBATION) “active; positive”; (Test System: CHINESE HAMSTER V-79, Strain/Indicator: V-79/OUABAIN, Metabolic Activation: HAMSTER, HEPATOCYTES, Method: CELL-MEDIATED) “active; positive”.

The values above are taken from PubChem BioAssay AID1259407 (Chemical Carcinogenesis Research Information System (CCRIS), 2018).
